# Laboratory results as given in ChEMBL document CHEMBL1201862, “PubChem BioAssay data set” (2004).
#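 48-hour exposure; five concentrations; linearly interpolated endpoints. GI50 = concentration required for 50% inhibition of growth.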 Activity calls are given as the source filed them. Rule as the data show it: active = GI50 up to about 1.1 µM and inactive = higher.
# Assays:
# Assay in all cases: DTP human tumour cell line panel, 48 h
# [1] = system: MDA-N
# [2] = system: SK-MEL-28
# [3] = system: NCI-H522
# [4] = system: A498
# [5] = system: MDA-MB-435
# [6] = system: SK-MEL-2
# [7] = system: SF-539
# [8] = system: UACC-62
# [9] = system: DU-145
# [10] = system: MOLT-4
# [11] = system: MDA-MB-231
# [12] = system: SF-295
# [13] = system: PC-3
# [14] = system: SN12C
# [15] = system: UO-31
# [16] = system: COLO 205
# [17] = system: SW-620
# [18] = system: MCF7
# [19] = system: HCC 2998
# [20] = system: RXF 393
SMILES,GI50 [1],GI50 [2],GI50 [3],GI50 [4],GI50 [5],GI50 [6],GI50 [7],GI50 [8],GI50 [9],GI50 [10],GI50 [11],GI50 [12],GI50 [13],GI50 [14],GI50 [15],GI50 [16],GI50 [17],GI50 [18],GI50 [19],GI50 [20]
CCCCc1ccc(Nc2nc(N)c3[nH]cnc3n2)cc1,16.9 µM (inactive),22.5 µM (inactive),14.7 µM (inactive),11.2 µM (inactive),21.5 µM (inactive),22.4 µM (inactive),18.8 µM (inactive),17.2 µM (inactive),19.2 µM (inactive),0.925 µM (active),19.8 µM (inactive),25.9 µM (inactive),15 µM (inactive),13.9 µM (inactive),12.7 µM (inactive),18.3 µM (inactive),30.3 µM (inactive),18.4 µM (inactive),24 µM (inactive),–
CC1CC2OC(=O)C(C)C2CC2(C)C(OC3OC(CO)C(O)C(O)C3O)OCCC12 (stereo not given),> 100 µM (inactive),> 100 µM (inactive),> 100 µM (inactive),> 100 µM (inactive),> 100 µM (inactive),> 100 µM (inactive),> 100 µM (inactive),16.9 µM (inactive),> 100 µM (inactive),> 100 µM (inactive),> 100 µM (inactive),> 100 µM (inactive),> 100 µM (inactive),> 100 µM (inactive),–,> 100 µM (inactive),> 100 µM (inactive),> 100 µM (inactive),> 100 µM (inactive),> 100 µM (inactive)
COc1cc2c(cc1O)C1CC(CC3CCCCN31)OC(=O)/C=C\c1ccc(O)c-2c1 (stereo not given),35.9 µM (inactive),28.3 µM (inactive),26.5 µM (inactive),12.9 µM (inactive),21.9 µM (inactive),26.5 µM (inactive),15.8 µM (inactive),18 µM (inactive),27.7 µM (inactive),20 µM (inactive),24.3 µM (inactive),13.5 µM (inactive),28.5 µM (inactive),37.2 µM (inactive),25.9 µM (inactive),25.2 µM (inactive),51.2 µM (inactive),13.9 µM (inactive),18.2 µM (inactive),–
Cn1nc(-c2ccccc2)c2c(-c3ccccc3)c3cc(Cl)ccc3nc21,> 100 µM (inactive),> 100 µM (inactive),45 µM (inactive),> 100 µM (inactive),> 100 µM (inactive),> 100 µM (inactive),–,> 100 µM (inactive),> 100 µM (inactive),15.8 µM (inactive),> 100 µM (inactive),97.1 µM (inactive),> 100 µM (inactive),> 100 µM (inactive),> 100 µM (inactive),–,> 100 µM (inactive),82 µM (inactive),> 100 µM (inactive),> 100 µM (inactive)
CC1(C)CC(=O)/C(=C/C2CCNC2=S)C(=O)N1 (stereo not given),> 100 µM (inactive),> 100 µM (inactive),> 100 µM (inactive),> 100 µM (inactive),> 100 µM (inactive),> 100 µM (inactive),> 100 µM (inactive),> 100 µM (inactive),> 100 µM (inactive),> 100 µM (inactive),> 100 µM (inactive),> 100 µM (inactive),> 100 µM (inactive),82.4 µM (inactive),> 100 µM (inactive),> 100 µM (inactive),> 100 µM (inactive),> 100 µM (inactive),> 100 µM (inactive),–
N#Cc1ncn(-c2ccccc2)c1N,> 100 µM (inactive),> 100 µM (inactive),> 100 µM (inactive),> 100 µM (inactive),> 100 µM (inactive),> 100 µM (inactive),> 100 µM (inactive),> 100 µM (inactive),> 100 µM (inactive),> 100 µM (inactive),> 100 µM (inactive),> 100 µM (inactive),> 100 µM (inactive),> 100 µM (inactive),> 100 µM (inactive),> 100 µM (inactive),> 100 µM (inactive),> 100 µM (inactive),> 100 µM (inactive),–
O=C(NC(=O)c1ccccc1)OC(c1ccccc1)C1CO1 (stereo not given),> 100 µM (inactive),> 100 µM (inactive),> 100 µM (inactive),–,> 100 µM (inactive),> 100 µM (inactive),> 100 µM (inactive),> 100 µM (inactive),> 100 µM (inactive),> 100 µM (inactive),> 100 µM (inactive),> 100 µM (inactive),> 100 µM (inactive),> 100 µM (inactive),> 100 µM (inactive),> 100 µM (inactive),> 100 µM (inactive),> 100 µM (inactive),> 100 µM (inactive),> 100 µM (inactive)
CCOC(=O)C1(C(=O)OCC)C[C@]23OCCC(=O)[C@H]2[C@H]2C(=O)OC(C)(C)O[C@]23C1,> 100 µM (inactive),> 100 µM (inactive),> 100 µM (inactive),> 100 µM (inactive),> 100 µM (inactive),> 100 µM (inactive),> 100 µM (inactive),> 100 µM (inactive),> 100 µM (inactive),> 100 µM (inactive),> 100 µM (inactive),> 100 µM (inactive),> 100 µM (inactive),> 100 µM (inactive),> 100 µM (inactive),> 100 µM (inactive),> 100 µM (inactive),> 100 µM (inactive),> 100 µM (inactive),–
CCCC#CC(O)(C(=O)OC1CCN(C)CC1)C1CCCCC1 (stereo not given),> 100 µM (inactive),> 100 µM (inactive),–,94.6 µM (inactive),> 100 µM (inactive),> 100 µM (inactive),> 100 µM (inactive),> 100 µM (inactive),> 100 µM (inactive),91.6 µM (inactive),> 100 µM (inactive),> 100 µM (inactive),48.3 µM (inactive),> 100 µM (inactive),29 µM (inactive),94.6 µM (inactive),> 100 µM (inactive),> 100 µM (inactive),> 100 µM (inactive),> 100 µM (inactive)
CC(C)(C)N(Cc1ccc2c(c1)OCO2)C(=O)/C=C\Sc1ccccc1,19.5 µM (inactive),> 100 µM (inactive),6.98 µM (inactive),71 µM (inactive),25.8 µM (inactive),25.2 µM (inactive),> 100 µM (inactive),> 100 µM (inactive),> 100 µM (inactive),21.1 µM (inactive),> 100 µM (inactive),> 100 µM (inactive),38.1 µM (inactive),> 100 µM (inactive),43 µM (inactive),45.1 µM (inactive),99.8 µM (inactive),51.8 µM (inactive),97.1 µM (inactive),–
Cc1[nH]c2ncn(/N=C/c3ccccc3)c(=N)c2c1Cc1ccccc1,55.1 µM (inactive),> 100 µM (inactive),–,60.8 µM (inactive),84.1 µM (inactive),87.1 µM (inactive),38.5 µM (inactive),58.9 µM (inactive),> 100 µM (inactive),53 µM (inactive),58.1 µM (inactive),> 100 µM (inactive),45.7 µM (inactive),> 100 µM (inactive),> 100 µM (inactive),> 100 µM (inactive),> 100 µM (inactive),79.6 µM (inactive),83.9 µM (inactive),> 100 µM (inactive)
N#C[BH2-][n+]1cn(C2CC(O)C(COP(=O)(O)OC3CC(n4cnc5c(=O)[nH]c(N)nc54)OC3CO)O2)c2nc(N)[nH]c(=O)c21 (stereo not given),> 100 µM (inactive),> 100 µM (inactive),> 100 µM (inactive),> 100 µM (inactive),> 100 µM (inactive),> 100 µM (inactive),> 100 µM (inactive),> 100 µM (inactive),> 100 µM (inactive),–,> 100 µM (inactive),> 100 µM (inactive),66.4 µM (inactive),> 100 µM (inactive),> 100 µM (inactive),> 100 µM (inactive),> 100 µM (inactive),39.5 µM (inactive),> 100 µM (inactive),97.3 µM (inactive)
N#Cc1c(N2CCN(c3ccc([N+](=O)[O-])cc3)CC2)[n+]([O-])c2ccccc2[n+]1[O-],> 100 µM (inactive),> 100 µM (inactive),3.5 µM (inactive),–,> 100 µM (inactive),> 100 µM (inactive),38.3 µM (inactive),> 100 µM (inactive),> 100 µM (inactive),1.93 µM (inactive),> 100 µM (inactive),> 100 µM (inactive),> 100 µM (inactive),> 100 µM (inactive),0.0155 µM (active),> 100 µM (inactive),> 100 µM (inactive),> 100 µM (inactive),> 100 µM (inactive),> 100 µM (inactive)
c1ccc2cc(CNCCOCCOCCNCc3ccc4ccccc4c3)ccc2c1,1.65 µM (inactive),1.97 µM (inactive),1.83 µM (inactive),1.71 µM (inactive),1.8 µM (inactive),1.91 µM (inactive),1.85 µM (inactive),2.06 µM (inactive),1.78 µM (inactive),1.92 µM (inactive),1.57 µM (inactive),1.64 µM (inactive),2.17 µM (inactive),2.16 µM (inactive),–,1.48 µM (inactive),1.91 µM (inactive),1.79 µM (inactive),0.208 µM (active),1.78 µM (inactive)
